Assay results taken from ChEMBL document CHEMBL3430912, “GSK Tres Cantos Anti-Kinetoplastid Screening (TCAKS) Data”.

Assays:
Leishmania donovani [1] = test: GSK_TCAKS: pIC50 Leishmania donovani Imaging: THP-1 Host Macrophages. Assay plates (384-well) were prepared by adding 250nL of compound to each well. For single shot assay, the final compound concentration was 5 uM. […] Automated image analysis was performed with a script developed on Acapella High Content Imaging and Analysis Software (PerkinElmer). Output: THP-1 cell count were reported for each well.; type: functional, organism-based, Homo sapiens
Trypanosoma cruzi [2] = test: (§1) GSK_TCAKS: pIC50 Trypanosoma cruzi Imaging: Infected Cells. […] Cells were then washed once with PBS before infection. T. cruzi trypomastigotes, collected at days 5 to 8 after infection from LLC-MK2 parasite infected cultures, were allowed to swim out for 4h at 37C from a centrifuged pellet (2,500 rpm/10 min/room temperature). Trypomastigotes were then collected and counted in a CASY Cell Counter. Trypomastigotes, in supplemented DMEM, were added to H9c2 cultures in a multiplicity of infection of 1 and incubated for 18 h. Cells were washed once with PBS before incubation of the infected H9c2 monolayer with trypsin (Life-Technologies) to detach cells from the flask. Cells were counted in a CASY Cell Counter using a 150 um capillary and their density set at 5 * 10^4 cells per mL in supplemented assay DMEM. Infected H9c2 were dispensed into 384-well poly-lysine coated assay plates at 50uL per well using a Multidrop Combi dispenser. After seeding them, the plates were incubated at 37C, 5% CO2 for 72h. Cultures were then fixed and stained by addition of 50 uL of a solution containing 8% formaldehyde and 4 uM DRAQ5 DNA dye (BioStatus, UK) per well. […] Five images were collected per well for reliable statistical analysis. Automated image analysis was performed with a script developed on Acapella High Content Imaging and Analysis Software (PerkinElmer). Output: percentage of infected cells per well as a second infection marker.; type: functional, organism-based, Rattus norvegicus; settings: H9c2, 4 h
[3] = tested on: Trypanosoma brucei brucei; test: GSK_TCAKS: pIC50 Trypanosoma brucei viability assay using fluorescence intensity. Assay plates (1536-well) were prepared by dispensing 25nL of compound solution per well using an Echo acoustic dispenser (Labcyte).; type: functional, organism-based; settings: Lister 427, 2 h
[4] = tested on: Trypanosoma brucei brucei; test: GSK_TCAKS: pIC50 Trypanosoma brucei viability assay using luminiscence. Assay plates (1536-well) were prepared. T. brucei cultures were harvested and counted in a CASY cell counter. A parasite suspension was prepared at a final concentration of 5 * 10^4 cells/mL in complete HMI9 medium and 6uL was dispensed to all wells containing compounds using a Multidrop Combi dispenser. 6uL of HMI9 media with 0.4% DMSO were dispensed to control columns. Plates were incubated for 24 h at 37C, 5% CO2 then tempered for 10 min at room temperature. ATP content was quantified by adding 4 uL of CellTiter-Glo Reagent (Promega) according to the manufacturer's instructions. Luminescence was measured using a ViewLux.; type: functional, organism-based; settings: Lister 427, CASY
Leishmania donovani [5] = test: GSK_TCAKS: pIC50 Leishmania donovani Imaging: Amastigotes/Macrophages. Assay plates (384-well) were prepared by adding 250nL of compound to each well. For single shot assay, the final compound concentration was 5 uM. […] Automated image analysis was performed with a script developed on Acapella High Content Imaging and Analysis Software (PerkinElmer). Output: Average number of amastigotes per macrophage cell were reported for each well.; type: functional, organism-based, Homo sapiens; settings: THP-1
Trypanosoma cruzi [6] = test: GSK_TCAKS: pIC50 Trypanosoma cruzi viability assay using beta-GAL activity. This assay was run at single shot at 5uM compound concentration per well. The biological reagents consisted of NIH-3T3 host cells and trypomastigotes parasitic cells; both cell types were set to a 3.3 * 10^5 cells/mL dilution in assay DMEM by means of a CASY cell counter device using a 60um capillary. 6 uL of the mixture were dispensed per well (about 1 * 10^3 host-cells and 1 * 10^3 parasites) with a Multidrop Combi dispenser. […] In all wells, the percentage of DMSO never exceeded 0.5%. Plates incubated for four days at 37C, 5% CO2. The substrate used for the assay fluorescence intensity (FLINT) readout was resorufin-beta-D-galactopiranoside (Sigma-Aldrich) at 5uM per well. It was diluted in PBS supplemented with the soft detergent Igepal (Fluka).; type: functional, organism-based, Mus musculus; settings: Tulahuen, NIH3T3
Trypanosoma cruzi [7] = test: GSK_TCAKS: pIC50 Trypanosoma cruzi Imaging: Amastigotes/Cell. […] Cells were then washed once with PBS before infection. T. cruzi trypomastigotes, collected at days 5 to 8 after infection from LLC-MK2 parasite infected cultures, were allowed to swim out for 4h at 37C from a centrifuged pellet (2,500 rpm/10 min/room temperature). Trypomastigotes were then collected and counted in a CASY Cell Counter. Trypomastigotes, in supplemented DMEM, were added to H9c2 cultures in a multiplicity of infection of 1 and incubated for 18 h. Cells were washed once with PBS before incubation of the infected H9c2 monolayer with trypsin (Life-Technologies) to detach cells from the flask. Cells were counted in a CASY Cell Counter using a 150 um capillary and their density set at 5 * 10^4 cells per mL in supplemented assay DMEM. Infected H9c2 were dispensed into 384-well poly-lysine coated assay plates at 50uL per well using a Multidrop Combi dispenser. After seeding them, the plates were incubated at 37C, 5% CO2 for 72h. Cultures were then fixed and stained by addition of 50 uL of a solution containing 8% formaldehyde and 4 uM DRAQ5 DNA dye (BioStatus, UK) per well. […] Five images were collected per well for reliable statistical analysis. Automated image analysis was performed with a script developed on Acapella High Content Imaging and Analysis Software (PerkinElmer). Output: number of amastigotes per cell as infection level measurement.; type: functional, organism-based, Rattus norvegicus; settings: H9c2, 4 h
[8] = molecular target: Sterol 14-alpha demethylase (Trypanosoma cruzi (strain CL Brener), UniProt Q7Z1V1); test: GSK_TCAKS: pIC50 CYP51 from Trypanosoma cruzi.; type: functional
Leishmania donovani [9] = test: GSK_TCAKS: pIC50 Leishmania donovani Imaging: Infected Macrophages. Assay plates (384-well) were prepared by adding 250nL of compound to each well. For single shot assay, the final compound concentration was 5 uM. […] Automated image analysis was performed with a script developed on Acapella High Content Imaging and Analysis Software (PerkinElmer). Output: Percent of infected macrophage cells were reported for each well.; type: functional, organism-based, Homo sapiens; settings: THP-1
Trypanosoma cruzi [10] = test: as §1, with “H2C9” for “Trypanosoma cruzi”, “H9c2 Host Cardiomyocytes.” for “Infected Cells.”, “Number” for “percentage”, “H9c2 Host Cardiomyocytes nuclei to determine drug-related cytotoxicity.” for “infected cells per well as a second infection marker.”; type: functional, organism-based, Rattus norvegicus; settings: H9c2, 4 h
[11] = GSK_TCAKS: pIC50 HepG2 human cell line viability assay using luminiscence. […] Seeding density was checked to ensure that new mono-layers were not more than 50% confluent at the time of harvesting. Cell suspension was added to 500 mL of the same medium at a final density of 1.2 * 10^5 cells/mL. This cell suspension was dispensed (25 uL, 3000 cells per well) into 384-well clear-bottom plates using a Multidrop Combi dispenser. Prior to addition of the cell suspension, the screening compounds (250 nL) were pre-dispensed into the plates with an Echo liquid handler. Plates were incubated for 48 h at 37C, 5% CO2. After incubation, plates equilibrated at room temperature for 30 min before proceeding to develop the luminescent signal. The signal developer, CellTiter-Glo Reagent, was allowed to equilibrate at room temperature for 30 min and added to the plates (25uL per well) using a Multidrop Combi dispenser. Plates were left for 10 min at room temperature for stabilization and then read using a ViewLux.; type: toxicity, cell-based
Leishmania donovani [12] = test: GSK_TCAKS: pIC50 Leishmania donovani viability assay using fluorescence intensity. Assay plates (1536-well) were prepared by adding 30nL per well of compound. For single shot assay, the final compound concentration was 5uM. […] Briefly, eGFP LdBOB axenic amastigotes were harvested, fixed and counted in a CASY cell counter (Roche-Applied Science). A final concentration of 1.5 * 10^5 cells per well were prepared in amastigote media containing 500 U/mL penicillin/streptomycin (Invitrogen) and 6uL was dispensed to each experimental well using a Multidrop Combi dispenser (Thermo Scientific). 6uL of assay media was dispensed to control columns used as reference for 100% compound response. Following incubation for 72 h at 37C, 5% CO2, 2 uL of resazurin was added to each well at a final concentration of 0.5 mM in phosphate buffered saline (PBS) with IGEPAL (Sigma-Aldrich), 0.05% (v/v).; type: functional, organism-based

Sequence of Sterol 14-alpha demethylase (Q7Z1V1 whole entry): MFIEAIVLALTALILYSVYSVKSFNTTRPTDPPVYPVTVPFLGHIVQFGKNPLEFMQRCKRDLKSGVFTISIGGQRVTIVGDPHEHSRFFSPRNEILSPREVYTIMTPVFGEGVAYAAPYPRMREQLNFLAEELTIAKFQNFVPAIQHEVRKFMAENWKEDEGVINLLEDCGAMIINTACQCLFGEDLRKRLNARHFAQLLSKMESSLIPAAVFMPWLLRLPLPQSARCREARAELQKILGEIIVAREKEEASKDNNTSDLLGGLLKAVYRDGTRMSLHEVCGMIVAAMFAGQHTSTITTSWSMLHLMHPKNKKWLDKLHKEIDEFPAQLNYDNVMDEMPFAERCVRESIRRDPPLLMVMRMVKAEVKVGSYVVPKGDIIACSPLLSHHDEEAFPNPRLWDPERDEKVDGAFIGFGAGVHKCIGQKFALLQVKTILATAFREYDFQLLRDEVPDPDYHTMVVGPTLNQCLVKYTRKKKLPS

Compound | IC50 (Leishmania donovani [1]) [µM] | IC50 (Trypanosoma cruzi [2]) [µM] | IC50 [3] [µM] | IC50 [4] [µM] | IC50 (Leishmania donovani [5]) [µM] | IC50 (Trypanosoma cruzi [6]) [µM] | IC50 (Trypanosoma cruzi [7]) [µM] | IC50 [8] [µM] | IC50 (Leishmania donovani [9]) [µM] | IC50 (Trypanosoma cruzi [10]) [µM] | IC50 at 48 h [11] [µM] | IC50 (Leishmania donovani [12]) [µM]
C[C@@H](Oc1cc(-n2cnc3ccc(C(O)CO)cc32)sc1C(N)=O)c1ccccc1C(F)(F)F (some centres not stated) | 15.8 | 20 | 0.398 | 0.794 | 12.6 | 5.01 | 15.8 | 25.1 | 20 | 0.631 | > 10 | 15.8
Cc1nc2c(-c3nc(-c4ccc(N)cc4)n[nH]3)cccn2c1C | 12.6 | > 50.1 | 12.6 | 25.1 | 1.58 | 6.31 | > 50.1 | > 100 | 2 | 10 | 15.8 | 3.16
Cc1ccc(Nc2nc(N)nc(CNC(c3nc4ccccc4[nH]3)C(C)C)n2)cc1 (configuration not stated) | 25.1 | 7.94 | 7.94 | 5.01 | 1.26 | 1 | 5.01 | 50.1 | 2 | > 50.1 | > 100 | 3.98
Cc1ccc(S(C)(=O)=O)cc1Nc1nccc(-c2sc(N)nc2-c2ccccc2)n1 | 20 | 0.126 | 0.794 | 1.58 | 2.51 | 0.126 | 0.0794 | > 100 | 5.01 | 5.01 | 31.6 | 3.16
COc1ncc(-c2ccc3nccc(-c4ccncc4)c3c2)cc1NS(C)(=O)=O | 3.16 | 25.1 | 0.316 | 1 | 0.631 | 1.58 | 12.6 | 79.4 | 2.51 | 5.01 | > 100 | 3.16
CCOC(=O)c1noc(N)c1-c1ccccc1 | > 50.1 | > 50.1 | 0.631 | 0.631 | > 50.1 | > 50.1 | > 50.1 | > 100 | > 50.1 | > 50.1 | > 100 | > 50.1
O=C1OCc2ccc(Nc3nccc(-c4cnn5ncccc45)n3)cc21 | 0.00794 | 0.0631 | 0.00398 | 0.02 | 0.0126 | 0.0251 | 0.0316 | > 100 | 0.0158 | 0.0251 | > 100 | 0.0631
Cc1cc(Oc2cc(Cl)c(Cl)cc2Cl)n2ncnc2n1 | 10 | 25.1 | 0.794 | 0.398 | 12.6 | 5.01 | 10 | > 100 | 15.8 | 7.94 | 31.6 | 15.8
COc1cnc2ccc(=O)n(CCN3CCC(NC(=O)Cc4ccc(Cl)c(Cl)c4)CC3)c2c1 | 25.1 | 0.398 | 0.251 | 0.501 | 5.01 | 0.316 | 0.158 | 0.794 | 39.8 | 6.31 | 63.1 | 5.01
COc1ccc(C2C3CCCCC3(O)CCN2CC(=O)Nc2ccc(Cl)cc2Cl)cc1 (configuration not stated) | > 50.1 | 1.26 | 7.94 | 25.1 | 0.794 | 2.82 | 0.794 | 10 | 2.51 | 20 | > 100 | 1.58
O=C(NCCc1csc(-c2cccc(F)c2)n1)c1ccco1 | > 50.1 | 1.58 | 0.501 | 0.631 | > 50.1 | 1.58 | 1.26 | > 100 | > 50.1 | 10 | > 100 | > 50.1
